{
  "source": "patent EP2570413A1",
  "about": "“Benzothiazinone derivatives as anti-tuberculosis agents” (The University Of Queensland, priority 2011, dated 2013)",
  "data": [
    {"test_system": "M. smegmatis SG987", "assay": "Agar diffusion assay", "type": "cell-based, Mycobacterium smegmatis", "set-up": "key to colonies in the inhibition zone: (p): few colonies in the inhibition zone; p: colonies in the inhibition zone; P: many colonies in the inhibition zone; A: faint indication of inhibition zone", "details": "Mycolicibacterium smegmatis", "procedure": "(§1) Antimicrobial activity is additionally determined by agar diffusion tests according to: European Pharmacopoeia, 3rd edition, 1997; 13, 118, Deutscher Apotheker Verlag Stuttgart\n(§2) 100 µl suspension of the test organism M. smegmatis SG987 with a density of McFarland standard 0.5 are inoculated into 34 ml of sterile melted agar medium (Nutrient agar from Serva Electrophoresis GmbH, Heidelberg, Germany) and poured into Petri dishes. Wells of 9 mm in diameter are cut in the agar and filled with 50 µl of the compound solution (for concentrations see Table 2). Compounds are dissolved in DMSO in a concentration of 1 mg/ml and further diluted in methanol to the final concentration. Growth inhibition zones around the agar wells are read after overnight incubation at 37°C.", "units": {"zone of inhibition at 1 µg/mL": "mm"}, "values": [
      {"compound": "O=C(O)c1cn(C2CC2)c2cc(N3CCNCC3)c(F)cc2c1=O", "note": "[III (Ref.), ciprofloxacin, reference compound]", "zone of inhibition at 1 µg/mL": 20}
    ]},
    {"test_system": "M. smegmatis SG987", "assay": "Agar diffusion assay", "type": "cell-based, Mycobacterium smegmatis", "set-up": "key to colonies in the inhibition zone: (p): few colonies in the inhibition zone; p: colonies in the inhibition zone; P: many colonies in the inhibition zone; A: faint indication of inhibition zone", "details": "at 1 µg/ml", "procedure": "as §1, §2", "values": [
      {"compound": "O=C(O)c1cn(C2CC2)c2cc(N3CCNCC3)c(F)cc2c1=O", "note": "[III (Ref.), ciprofloxacin, reference compound]", "colonies in the inhibition zone": "p"}
    ]},
    {"test_system": "M. smegmatis SG987", "assay": "MIC assay, broth microdilution", "type": "cell-based, Mycobacterium smegmatis", "details": "Mycolicibacterium smegmatis, SG987; read-out: MIC M. smeg. SG987", "description": "The protocol used is the broth microdilution method in microtiter plates (MTP), based upon that detailed by the CLSI (Clinical and Laboratory Standards Institute (CLSI). 2006. Methods for Dilution Antimicrobial Susceptibility Tests for Bacteria that Grow Aerobically; Approved Standard. 7th edn. Document M7-A6. Clinical and Laboratory Standards Institute, Wayne, PA.).\nStrain: Mycobacterium smegmatis, ATCC 700084, or other Mycobacterium strains (see table below).\nMedium: The bacteria culture and the MIC were done using the following medium: MHB - Mueller-Hinton Broth + 0.05% Tween80, purchased from Difco, Tween80 has been added to avoid clumping of the bacteria.\nThis highest concentration is filled in the first row of the microtiter plate and further diluted in the culture medium for the Mycobacteria (Mueller-Hinton Broth and Middlebrook 7H9 broth). All solutions are freshly prepared under sterile conditions.\nResazurin salt powder (Sigma) is prepared at 0.01 % (wt/vol) in distilled water, sterilized by filtration through a 0.22 µm membrane and stored at 4°C for a week.\nCiprofloxacin, isoniaz-d and rifampicin can be used as reference compounds for control of the assay as well as a solvent control. Minimal inhibitory concentrations (MIC) are determined by the broth microdilution method. 50 µl of the compound solution in DMSO/MeOH are serially diluted directly in the microtiter plate by factor two with Mueller-Hinton broth (MHB)(Difco). Then the wells are inoculated with 50 µl of test organisms in MHB to give a final concentration of 5x10^5 CFU/ml. After microtiter plates are incubated at 37°C for 48 h, the optical density of each well is measured with a Nepheloscan Ascent 1.4 automatic plate reader (Labsystems, Vantaa, Finland). Then 30 µl of resazurin solution is added to each well and plates are allowed to incubate at 37°C for additional 24 h. A change from blue to pink indicates reduction of resazurin and therefore bacterial growth. The MIC is defined as the lowest drug concentration that prevents this colour change.", "units": {"MIC": "ng/mL"}, "values": [
      {"compound": "O=c1nc(N2CCC(c3ccccc3)CC2)sc2c([N+](=O)[O-])cc(C(F)(F)F)cc12", "note": "[Compound 1]", "MIC": 4},
      {"compound": "O=c1nc(N2CCN(Cc3ccccc3)CC2)sc2c([N+](=O)[O-])cc(C(F)(F)F)cc12", "note": "[II (Ref.), reference compound]", "MIC": 50},
      {"compound": "O=c1nc(N2CCC(Cc3ccccc3)CC2)sc2c([N+](=O)[O-])cc(C(F)(F)F)cc12", "note": "[Compound 6]", "MIC": "< 5"},
      {"compound": "O=C(O)c1cn(C2CC2)c2cc(N3CCNCC3)c(F)cc2c1=O", "note": "[III (Ref.), ciprofloxacin, reference compound]", "MIC": 200},
      {"compound": "Cc1cccc(C2CCN(c3nc(=O)c4cc(C(F)(F)F)cc([N+](=O)[O-])c4s3)CC2)c1", "note": "[Compound 7]", "MIC": "< 5"}
    ]},
    {"test_system": "not listed separately", "assay": "Metabolic stability, human", "type": "in vitro ADME", "details": "Human; test compound 1 µM in NADP (1.3 mM), G6P 3.3 mM, G6PDHase, DMSO", "units": {"Metabolic Stability Human": "%"}, "values": [
      {"compound": "O=c1nc(N2CCC(c3ccccc3)CC2)sc2c([N+](=O)[O-])cc(C(F)(F)F)cc12", "note": "[Compound 1]", "Metabolic Stability Human": 120},
      {"compound": "O=c1nc(N2CCC(Cc3ccccc3)CC2)sc2c([N+](=O)[O-])cc(C(F)(F)F)cc12", "note": "[Compound 6]", "Metabolic Stability Human": 1},
      {"compound": "Cc1cccc(C2CCN(c3nc(=O)c4cc(C(F)(F)F)cc([N+](=O)[O-])c4s3)CC2)c1", "note": "[Compound 7]", "Metabolic Stability Human": 21}
    ]},
    {"test_system": "not listed separately", "assay": "Plasma stability, human", "type": "in vitro ADME", "details": "Human; test compound 5 µM in plasma", "units": {"Plasma Stability Human": "%"}, "values": [
      {"compound": "O=c1nc(N2CCC(c3ccccc3)CC2)sc2c([N+](=O)[O-])cc(C(F)(F)F)cc12", "note": "[Compound 1]", "Plasma Stability Human": 96},
      {"compound": "O=c1nc(N2CCC(Cc3ccccc3)CC2)sc2c([N+](=O)[O-])cc(C(F)(F)F)cc12", "note": "[Compound 6]", "Plasma Stability Human": 98},
      {"compound": "Cc1cccc(C2CCN(c3nc(=O)c4cc(C(F)(F)F)cc([N+](=O)[O-])c4s3)CC2)c1", "note": "[Compound 7]", "Plasma Stability Human": 103}
    ]},
    {"test_system": "M. vaccae 10670", "assay": "MIC assay, broth microdilution", "type": "cell-based", "details": "Mycolicibacterium vaccae, 10670", "units": {"MIC": "ng/mL"}, "values": [
      {"compound": "O=c1nc(N2CCC(c3ccccc3)CC2)sc2c([N+](=O)[O-])cc(C(F)(F)F)cc12", "note": "[Compound 1]", "MIC": 0.4},
      {"compound": "O=c1nc(N2CCN(Cc3ccccc3)CC2)sc2c([N+](=O)[O-])cc(C(F)(F)F)cc12", "note": "[II (Ref.), reference compound]", "MIC": 50},
      {"compound": "O=c1nc(N2CCC(Cc3ccccc3)CC2)sc2c([N+](=O)[O-])cc(C(F)(F)F)cc12", "note": "[Compound 6]", "MIC": "< 0.0012"},
      {"compound": "Cc1cccc(C2CCN(c3nc(=O)c4cc(C(F)(F)F)cc([N+](=O)[O-])c4s3)CC2)c1", "note": "[Compound 7]", "MIC": "< 0.0012"}
    ]},
    {"test_system": "not listed separately", "assay": "Metabolic stability, mouse", "type": "in vitro ADME", "details": "Mouse; test compound 1 µM in NADP (1.3 mM), G6P 3.3 mM, G6PDHase, DMSO", "units": {"Metabolic Stability Mouse": "%"}, "values": [
      {"compound": "O=c1nc(N2CCC(c3ccccc3)CC2)sc2c([N+](=O)[O-])cc(C(F)(F)F)cc12", "note": "[Compound 1]", "Metabolic Stability Mouse": 75},
      {"compound": "O=c1nc(N2CCC(Cc3ccccc3)CC2)sc2c([N+](=O)[O-])cc(C(F)(F)F)cc12", "note": "[Compound 6]", "Metabolic Stability Mouse": 0},
      {"compound": "Cc1cccc(C2CCN(c3nc(=O)c4cc(C(F)(F)F)cc([N+](=O)[O-])c4s3)CC2)c1", "note": "[Compound 7]", "Metabolic Stability Mouse": 18}
    ]},
    {"test_system": "M. tuberculosis H37Rv", "assay": "In-vivo mouse survival", "details": "50 img/kg", "values": [
      {"compound": "O=c1nc(N2CCC(c3ccccc3)CC2)sc2c([N+](=O)[O-])cc(C(F)(F)F)cc12", "note": "[Compound 1]", "In-vivo Mouse Survival 4 wks": "4 of 10"}
    ]},
    {"test_system": "Mycobacteria", "assay": "not given", "details": "existing anti-tuberculosis drugs, comparison values; cited from earlier work", "units": {"MIC": "ng/mL"}, "values": [
      {"compound": "NNC(=O)c1ccncc1", "note": "[isoniazid]", "MIC": "20 to 200"},
      {"compound": "CC[C@@H](CO)NCCN[C@@H](CC)CO", "note": "[ethambutol]", "MIC": "1000 to 5000"}
    ]},
    {"test_system": "not listed separately", "assay": "Plasma stability, mouse", "type": "in vitro ADME", "details": "Mouse; test compound 5 µM in plasma", "units": {"Plasma Stability Mouse": "%"}, "values": [
      {"compound": "O=c1nc(N2CCC(c3ccccc3)CC2)sc2c([N+](=O)[O-])cc(C(F)(F)F)cc12", "note": "[Compound 1]", "Plasma Stability Mouse": 71},
      {"compound": "O=c1nc(N2CCC(Cc3ccccc3)CC2)sc2c([N+](=O)[O-])cc(C(F)(F)F)cc12", "note": "[Compound 6]", "Plasma Stability Mouse": 108},
      {"compound": "Cc1cccc(C2CCN(c3nc(=O)c4cc(C(F)(F)F)cc([N+](=O)[O-])c4s3)CC2)c1", "note": "[Compound 7]", "Plasma Stability Mouse": 100}
    ]},
    {"test_system": "M. aurum", "assay": "MIC assay, broth microdilution", "type": "cell-based", "details": "Mycolicibacterium aurum", "units": {"MIC": "ng/mL"}, "values": [
      {"compound": "O=c1nc(N2CCC(c3ccccc3)CC2)sc2c([N+](=O)[O-])cc(C(F)(F)F)cc12", "note": "[Compound 1]", "MIC": "> 100"}
    ]},
    {"test_system": "not listed separately", "assay": "Chemical stability in NaCl/HCl/pepsin", "type": "physicochemical", "details": "Test compound 5 µM in 35mM NaCl, 85 mM HCl, appr. 2000 U pepsin", "units": {"Chemical Stability": "%"}, "values": [
      {"compound": "O=c1nc(N2CCC(c3ccccc3)CC2)sc2c([N+](=O)[O-])cc(C(F)(F)F)cc12", "note": "[Compound 1]", "Chemical Stability": 82},
      {"compound": "O=c1nc(N2CCC(Cc3ccccc3)CC2)sc2c([N+](=O)[O-])cc(C(F)(F)F)cc12", "note": "[Compound 6]", "Chemical Stability": 55},
      {"compound": "Cc1cccc(C2CCN(c3nc(=O)c4cc(C(F)(F)F)cc([N+](=O)[O-])c4s3)CC2)c1", "note": "[Compound 7]", "Chemical Stability": 53}
    ]},
    {"test_system": "M fort.", "assay": "MIC assay, broth microdilution", "type": "cell-based", "details": "not given", "units": {"MIC": "ng/mL"}, "values": [
      {"compound": "O=c1nc(N2CCC(c3ccccc3)CC2)sc2c([N+](=O)[O-])cc(C(F)(F)F)cc12", "note": "[Compound 1]", "MIC": 12.5},
      {"compound": "O=c1nc(N2CCN(Cc3ccccc3)CC2)sc2c([N+](=O)[O-])cc(C(F)(F)F)cc12", "note": "[II (Ref.), reference compound]", "MIC": 50}
    ]},
    {"test_system": "MDR M. tuberculosis", "assay": "MIC assay, broth microdilution", "type": "cell-based", "details": "Mycobacterium tuberculosis, read-out: MIC M. 1b.", "units": {"MIC": "ng/mL"}, "values": [
      {"compound": "O=c1nc(N2CCC(c3ccccc3)CC2)sc2c([N+](=O)[O-])cc(C(F)(F)F)cc12", "note": "[Compound 1]", "MIC": "< 15"},
      {"compound": "O=c1nc(N2CCC(Cc3ccccc3)CC2)sc2c([N+](=O)[O-])cc(C(F)(F)F)cc12", "note": "[Compound 6]", "MIC": 32},
      {"compound": "Cc1cccc(C2CCN(c3nc(=O)c4cc(C(F)(F)F)cc([N+](=O)[O-])c4s3)CC2)c1", "note": "[Compound 7]", "MIC": 8}
    ]}
  ]
}
